Key:
[1] = target: T1, Hsp90 (Homo sapiens, UniProt P07900); assay: fluorescent polarization
[2] = tested on: HER2 over-expressing SKBr3 breast cancer cells; assay: cell growth inhibition assay; type: cell-based; conditions: Homo sapiens, SK-BR-3, 72 h, read-out: IC50 SKBr3
[3] = target: T1, Hsp90; conditions: cited from earlier work
[4] = target: T1, Hsp90; conditions: cited from earlier work; remark: listed apart in the source
[5] = tested on: Raf-1; assay: Western blot assay, client protein degradation; type: cell-based
[6] = tested on: PRAS40; assay: Western blot assay, client protein degradation; type: cell-based
[7] = read-out: IC50 cell growth inhibition; cited from earlier work

## O=S(=O)(Nc1ccc(O)c(-c2ccccc2O)c1)c1cc(Cl)ccc1Cl [Compound 9a]
[1]; relative to compound 2
  fold less activity than 2 in FP assay: about 20 fold

## O=S(=O)(Nc1ccc(O)c(-c2c(O)ccc3c2OCO3)c1)c1cc(Cl)ccc1Cl [Compound 17]
[2]
  IC50: 4.4 µM

## O=S(=O)(Nc1ccc(O)c(-c2c(O)ccc3ccccc23)c1)c1ccccc1 [Compound 1]
[3]
  activity in malachite green assay: low micromolar activity
[4]
  activity in FP assay: low micromolar activity

## COc1ccc(O)c(O)c1-c1cc(NS(=O)(=O)c2cc(Cl)ccc2Cl)ccc1N [Compound 13]
[2]
  IC50: 6 µM
[5]
  effect on Raf-1 degradation: neither had any effect
[6]
  effect on PRAS40 degradation: neither had any effect
[1]; mean of 2 independent determinations, maximum concentration tested 50 µM
  IC50 FP: sub-micromolar

## O=S(=O)(Nc1ccc(O)c(-c2c(O)ccc3ccccc23)c1)c1cc(Cl)ccc1Cl [Compound 2]
[2]
  IC50: 6.5 µM
[5]
  effect on Raf-1 degradation: neither had any effect
[6]
  effect on PRAS40 degradation: neither had any effect
[7]
  IC50: 29 µM

— PMC2653417 (Bioorganic & medicinal chemistry letters, 2008)
